This is an account of results in patent US7939546B2, “Quinoline derivatives for modulating DNA methylation” (SuperGen, Inc., priority 2007, dated 2011).

For one data set, the system named is CMV-EE210 cell line. Description: Toxicity (TD50, cell viability) reported with the GFP assay. As to conditions: for TD50: Dose at which cells are >50% viable. Here is the method: (§1) The demethylating activity of non-bis-quaternary 4-anilinoquinolines were tested in a cell-based GFP (green fluorescent protein) assay. This assay has a GFP gene regulated by the CMV promoter and is sensitive to the methylation of CpG sites within the promoter. A decrease in methylation resulting from exposure to a methylation inhibitor leads to GFP expression and is readily scored. Specifically, the CMV-EE210 cell line containing the epigenetically silenced GFP transgene was used to assay for reactivation of GFP expression by flow cytometry. CMV-EE210 was made by transfecting NIH 3T3 cells with the pTR-UF/UF1/UF2 plasmid (Zolotuhin et al., 1996), which is comprised of pBS(+) (Stratagene, Inc.) containing a cytomegalovirus (CMV) promoter driving a humanized GFP gene adapted for expression in mammalian cells. After transfection, high-level GFP expressing cells were initially selected by FACS analysis and sorting using a MoFlo cytometer (Cytomation, Inc.). […] To screen for reactivation of CMV-EE210, decitabine (at […]) or a test compound (at a concentration of 30-50 μM) was added to complete medium (phenol red free DMEM (Gibco, Life Technologies) supplemented with 10% fetal bovine serum (Hyclone)). Cells were then seeded to 30% confluence (˜5000 cell/well) in 96 well plate containing the test compounds and grown for three days in at 37° C. in 5% CO2. The plates were examined under a fluorescent microscope using a 450-490 excitation filter (13 filter cube, Leica, Deerfield Ill.). Wells were scored g1 positive if 10% of viable cells express GFP, g2 positive if 30% of viable cells express GFP and g3 if greater than 75% of the viable cells express GFP. GFP IC 50 is the concentration of an inhibitor that (like an IC50) is the dose at which the GFP expression level goes from g3 to g1/2.

Data set [1] concerns CMV-EE210 cell line containing the epigenetically silenced GFP transgene. The experiment in a line: Cell-based GFP assay for demethylating activity (reactivation of silenced GFP transgene). Conditions: for GFP Expression Level: test compound 30-50 μM, decitabine at 11 M (so in the source), three days; for IC50: read-out: GFP IC50. Here is the method:
as §1

A further data set concerns the target DNMT1 (Homo sapiens, UniProt P26358). The experiment in a line: Selective depletion of DNMT1 by Western blot in treated HCT116 cells. The format is cell-based. Also noted: Protein extracts (equivalent to 100 μg) were isolated from HCT116 cells; endogenous in cells; host or cells: HCT116. Conditions: for % DNMT1 protein level remaining at 5 µM: HCT-116, 5 μM; for % DNMT1 protein level remaining at 10 µM: HCT-116, 10 μM; for % DNMT1 protein level remaining at 100 µM: HCT-116, 100 μM. From the text: Biol. 2005, 11, 4727-41.]. For DNMT1, commercially available antibodies from Santa Cruz or New England Biolabs were used.

Each structure is given as a SMILES string. Structures can show the parent of a compound that is named as a salt. Where two headings read alike, the source gives them in different places.

Sequence of DNMT1 (P26358 whole entry): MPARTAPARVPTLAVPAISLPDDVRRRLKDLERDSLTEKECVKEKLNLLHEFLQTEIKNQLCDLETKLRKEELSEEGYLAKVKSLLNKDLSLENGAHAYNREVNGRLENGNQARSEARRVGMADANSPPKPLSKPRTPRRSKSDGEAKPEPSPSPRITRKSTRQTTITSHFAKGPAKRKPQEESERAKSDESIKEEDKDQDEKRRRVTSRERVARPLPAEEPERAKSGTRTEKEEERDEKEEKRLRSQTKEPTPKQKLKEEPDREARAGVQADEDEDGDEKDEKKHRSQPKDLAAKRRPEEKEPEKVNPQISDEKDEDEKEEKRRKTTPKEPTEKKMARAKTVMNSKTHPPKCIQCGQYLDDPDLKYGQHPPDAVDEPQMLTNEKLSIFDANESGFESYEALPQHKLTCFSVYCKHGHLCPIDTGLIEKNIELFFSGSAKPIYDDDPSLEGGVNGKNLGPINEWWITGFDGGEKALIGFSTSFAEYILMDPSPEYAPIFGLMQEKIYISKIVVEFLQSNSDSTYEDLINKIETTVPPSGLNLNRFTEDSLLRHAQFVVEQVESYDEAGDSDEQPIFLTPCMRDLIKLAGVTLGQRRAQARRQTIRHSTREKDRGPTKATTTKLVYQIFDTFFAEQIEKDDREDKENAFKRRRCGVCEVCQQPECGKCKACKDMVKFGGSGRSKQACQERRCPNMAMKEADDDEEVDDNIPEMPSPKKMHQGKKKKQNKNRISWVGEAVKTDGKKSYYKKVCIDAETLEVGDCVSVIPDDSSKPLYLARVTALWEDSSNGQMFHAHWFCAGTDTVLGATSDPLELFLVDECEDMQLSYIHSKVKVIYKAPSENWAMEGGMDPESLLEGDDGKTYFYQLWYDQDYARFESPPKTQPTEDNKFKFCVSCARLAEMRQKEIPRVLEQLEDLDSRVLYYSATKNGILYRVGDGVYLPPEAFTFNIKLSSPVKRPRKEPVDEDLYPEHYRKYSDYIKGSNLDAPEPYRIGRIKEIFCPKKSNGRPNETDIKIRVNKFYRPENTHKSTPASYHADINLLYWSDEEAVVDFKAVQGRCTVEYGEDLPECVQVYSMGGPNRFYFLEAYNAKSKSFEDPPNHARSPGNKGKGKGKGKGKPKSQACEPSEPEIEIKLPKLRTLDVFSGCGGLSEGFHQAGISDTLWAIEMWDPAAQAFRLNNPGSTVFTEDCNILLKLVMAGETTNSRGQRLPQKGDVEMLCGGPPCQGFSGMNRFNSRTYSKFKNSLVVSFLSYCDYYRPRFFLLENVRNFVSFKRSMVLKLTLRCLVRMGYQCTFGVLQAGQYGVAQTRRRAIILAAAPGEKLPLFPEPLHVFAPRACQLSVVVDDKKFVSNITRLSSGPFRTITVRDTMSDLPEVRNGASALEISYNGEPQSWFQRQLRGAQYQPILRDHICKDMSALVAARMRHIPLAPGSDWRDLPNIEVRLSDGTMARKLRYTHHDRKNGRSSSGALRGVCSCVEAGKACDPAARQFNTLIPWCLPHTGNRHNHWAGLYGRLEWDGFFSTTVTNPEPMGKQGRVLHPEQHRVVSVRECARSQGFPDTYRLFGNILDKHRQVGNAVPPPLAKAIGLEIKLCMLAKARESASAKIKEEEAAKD

In turn, `CN(C)c1ccc2c(Nc3ccc(C(=O)Nc4ccc(Nc5cc[n+](C)cc5)cc4)cc3)ccnc2c1.Cl.[Cl-]` [Cpd. AA] registered a TD50 with CMV-EE210 cell line of 25 µM. In data set [1], the “GFP Expression Level” value was “g2 (g2 positive if 30% of viable cells express GFP)”. For the same compound, the “% DNMT1 Level” value is recorded as 136% at DNMT1 (5 μM), 101% on DNMT1 (10 μM) and 32% on DNMT1 (100 μM).
In the data set with CMV-EE210 cell line, `C[n+]1ccc(Nc2ccc(NC(=O)c3ccc(Nc4ccnc5ccccc45)cc3)cc2)cc1` [Cpd. B, 1-methyl-4-(4-(4-(quinolin-4-ylamino)benzamido)phenylamino)pyridinium chloride hydrochloride] showed a TD50 of 25 µM. Further, on DNMT1, the % DNMT1 protein level remaining at 5 µM was found to be 102%, the % DNMT1 protein level remaining at 10 µM came out at 98% and the % DNMT1 protein level remaining at 100 µM amounted to 81%.
Regarding `Cc1cc(Nc2ccc(NC(=O)c3ccc(Nc4ccnc5cc(N(C)C)ccc45)cc3)cc2)nc(N)n1` [Cpd. BB, N-[4-(2-amino-6-methylpyrimidin-4-ylamino)phenyl]-4-(7-(dimethylamino)quinolin-4-ylamino)benzamide hydrochloride], in the data set on CMV-EE210 cell line, the “toxicity relative to decitabine” value is listed as “less than one-half as toxic as decitabine” and the TD50 came to 25 µM. The IC50 in data set [1] came out at 100 µM. Moreover, at DNMT1, the % DNMT1 protein level remaining at 5 µM is 106%, the % DNMT1 protein level remaining at 10 µM worked out at 76% and the % DNMT1 protein level remaining at 100 µM is 32%.
Consider `C[n+]1ccc(Nc2cccc(C(=O)Nc3ccc(Nc4ccnc5ccccc45)cc3)c2)cc1.Cl.[Cl-]` [Cpd. C, 4-[4-({3-[(1-methyl-4-pyridiniumyl)amino]benzoyl}amino)anilino]quinolinium dichloride], for which the TD50 with CMV-EE210 cell line came out at 25 µM. Further, the IC50 in data set [1] (dose at which the GFP expression level goes from g3 to g1/2) is 50 µM. Also, the “GFP Expression Level” value in data set [1] is “g1 (g1 positive if 10% of viable cells express GFP)”. Moreover, the “% DNMT1 Level” value on DNMT1 (5 μM) is 31%; at DNMT1 (10 μM), 33%; at DNMT1 (100 μM) it was 34%.
As for `CN(C)c1ccc2c(Nc3ccc(NC(=O)c4ccc(Nc5cc[n+](C)cc5)cc4)cc3)ccnc2c1.Cl.[Cl-]` [Cpd. DD, 7-(dimethylamino)-4-[4-({4-[(1-methyl-4-pyridiniumyl)amino]benzoyl}amino)aniline]quinolinium dichloride], the TD50 in the data set with CMV-EE210 cell line stood at 25 µM. Moreover, the “% DNMT1 Level” value at DNMT1 (5 μM) amounted to 90%; at DNMT1 (10 μM) it was 74%; on DNMT1 (100 μM), 52%.
As to `C[n+]1ccc(Nc2cccc(NC(=O)c3ccc(Nc4ccnc5ccc([N+](=O)[O-])cc45)cc3)c2)cc1` [Cpd. F, 1-methyl-4-(3-{[4-(6-nitro-4-quinolinylamino)benzoyl]amino}anilino)pyridinium chloride], in the data set on CMV-EE210 cell line, the TD50 stood at 25 µM. Moreover, at DNMT1, the % DNMT1 protein level remaining at 5 µM was found to be 145%, the % DNMT1 protein level remaining at 10 µM stood at 210% and the % DNMT1 protein level remaining at 100 µM worked out at 155%.
`Cc1cc(Nc2ccc(NC(=O)c3ccc(Nc4ccnc5ccc([N+](=O)[O-])cc45)cc3)cc2)nc(N)n1` [Cpd. H, N-(4-(2-amino-6-methylpyrimidin-4-ylamino)phenyl)-4-(6-nitroquinolin-4-ylamino)benzamide hydrochloride] displayed a TD50 with CMV-EE210 cell line of 12.5 µM. In addition, on DNMT1, the % DNMT1 protein level remaining at 5 µM was 132%, the % DNMT1 protein level remaining at 10 µM is 25% and the % DNMT1 protein level remaining at 100 µM came out at 24%.
On the same counts, the results for `C/C(=N\N=C(N)N)c1ccc(NC(=O)c2ccc(Nc3ccnc4ccc([N+](=O)[O-])cc34)cc2)cc1` [Cpd. I, (E)-N-[4-{1-([diaminomethylene]hydrazono)ethyl}phenyl]-4-(6-nitroquinolin-4-ylamino)benzamide hydrochloride] are 25 µM, 27%, 80% and 48%.
The compound `C[n+]1ccc(Nc2cccc(C(=O)Nc3ccc(Nc4ccnc5ccc([N+](=O)[O-])cc45)cc3)c2)cc1` [Cpd. J, 4-[4-({3-[(1-methyl-4-pyridiniumyl)amino]benzoyl}amino)anilino]-6-nitroquinolinium dichloride] displayed a melting point of over 300 °C. This compound yielded a TD50 in the data set on CMV-EE210 cell line of 12.5 µM. Further, on DNMT1, the % DNMT1 protein level remaining at 5 µM worked out at 101%, the % DNMT1 protein level remaining at 10 µM was determined as 89% and the % DNMT1 protein level remaining at 100 µM came out at 59%.
As to `C[n+]1ccc(Nc2cccc(NC(=O)c3ccc(Nc4ccnc5ccc(N)cc45)cc3)c2)cc1` [Cpd. K, 4-[3-({4-[(6-ammonio-4-quinolinyl)amino]benzoyl}amino)anilino]-1-methylpyridinium dichloride], the melting point lay in the range of 270 to 274 °C. The compound further gave a TD50 in the data set with CMV-EE210 cell line of 12.5 µM. At DNMT1, the % DNMT1 protein level remaining at 5 µM came out at 98%, the % DNMT1 protein level remaining at 10 µM was 92% and the % DNMT1 protein level remaining at 100 µM stood at 37%.
`C[n+]1ccc(Nc2cccc(C(=O)Nc3ccc(Nc4ccnc5ccc(N)cc45)cc3)c2)cc1` [Cpd. M, 6-amino-4-[4-({3-[(1-methyl-4-pyridiniumyl)amino]benzoyl}amino)anilino]quinolinium dichloride] yielded a melting point of over 310 °C. Moreover, the TD50 in the data set on CMV-EE210 cell line was found to be 25 µM. At DNMT1, the % DNMT1 protein level remaining at 5 µM is 30%, the % DNMT1 protein level remaining at 10 µM stood at 40% and the % DNMT1 protein level remaining at 100 µM was 43%.
On to `C[n+]1ccc(Nc2cccc(NC(=O)c3ccc(Nc4ccnc5cc([N+](=O)[O-])ccc45)cc3)c2)cc1` [Cpd. R, 1-methyl-4-[3-({4-[(7-nitro-4-quinolinyl)amino]benzoyl}amino)anilino]pyridinium chloride], for which the TD50 in the data set on CMV-EE210 cell line amounted to 25 µM. On DNMT1, the % DNMT1 protein level remaining at 5 µM is 160%, the % DNMT1 protein level remaining at 10 µM is 170% and the % DNMT1 protein level remaining at 100 µM turned out to be 165%.
`C[n+]1ccc(Nc2cccc(C(=O)Nc3ccc(Nc4ccnc5cc([N+](=O)[O-])ccc45)cc3)c2)cc1.Cl.[Cl-]` [Cpd. T, 4-[4-({3-[(1-methyl-4-pyridiniumyl)amino]benzoyl}amino)anilino]-7-nitroquinolinium dichloride] yielded a TD50 in the data set on CMV-EE210 cell line of 25 µM. In addition, the “% DNMT1 Level” value on DNMT1 (5 μM) was 64%; on DNMT1 (10 μM), 69%; on DNMT1 (100 μM), 85%.
For `C[n+]1ccc(Nc2ccc(C(=O)Nc3ccc(Nc4ccnc5cc([N+](=O)[O-])ccc45)cc3)cc2)cc1.Cl.[Cl-]` [Cpd. U, 4-[4-({4-[(1-methyl-4-pyridiniumyl)amino]benzoyl}amino)anilino]-7-nitroquinolinium dichloride] the same measures were 25 µM, 97%, 53% and 32%.
`C[n+]1ccc(Nc2cccc(NC(=O)c3ccc(Nc4ccnc5cc(N)ccc45)cc3)c2)cc1` [Cpd. V, 4-[3-({4-[(7-ammonio-4-quinolinyl)amino]benzoyl}amino)anilino]-1-methylpyridinium dichloride] came in with a melting point of 281 to 285 °C. Also, the TD50 with CMV-EE210 cell line worked out at 12.5 µM. Besides, on DNMT1, the % DNMT1 protein level remaining at 5 µM worked out at 112%, the % DNMT1 protein level remaining at 10 µM was found to be 110% and the % DNMT1 protein level remaining at 100 µM is 124%.
